Test results published in patent US20120214818A1, “METHODS OF TREATING DIASTOLIC DYSFUNCTION AND RELATED CONDITIONS” (THE BOARD OF TRUSTEES OF THE UNIVERSITY OF ILLINOIS, priority 2009, published 2012).

Tests used:
[1] = system: isolated ventricular myocytes from DOCA-salt and sham mice; assay: Calcium transient measurements (Fura-2AM) in isolated cardiomyocytes; type: cell-based, mouse; conditions: 10 μM ranolazine
Description: Cell shortening and calcium transient measurements: The mechanical properties of the cardiomyocytes were assessed using an IonOptix Myocam System (Ionoptix Inc., Milton, Mass.). Unloaded cardiomyocytes were placed on a glass slide and allowed to adhere for 10 min. Cardiomyocytes were then imaged with an inverted microscope and perfused with a Tyrode's buffer containing 1.2 mmol/L calcium at room temperature. Cardiomyocytes were paced at 0.5 Hz for 10 ms duration, and sarcomere shortening and relengthening were assessed using the following indices: peak fractional shortening (FS), time to 90% peak shortening, and τ, the relaxation time constant (a0+[…]^t/τ, t=time). […] For calcium transient measurements, cardiomyocytes were loaded with 1 μmol/L Fura 2-AM for 10 min at room temperature, and fluorescence measurements were recorded with a dual-excitation fluorescence photomultiplier system (IonOptix). […] The emitted fluorescence was detected at 510 nm. To take into account any inference from background fluorescence, the background fluorescence for each cardiomyocyte was determined by moving the cardiomyocyte out of the view and recording the fluorescence from the bath solution alone. The mechanical properties of the cardiomyocytes were assessed using an IonOptix Myocam System (Ionoptix Inc., Milton, Mass.). […] The emitted fluorescence was detected at 510 nm. […]

[2] = system: myofilaments of skinned left ventricular papillary fiber bundles; assay: Simultaneous tension and ATPase rate in skinned fiber bundles (second series); type: biochemical, mouse; conditions: ranolazine 15 min; for Maximum ATPase: 20° C.; for Ktr, the rate constant for force redevelopment: in s-1 (unit assumed)
Description: We measured myofilament response to Ca^2+ under two experimental conditions as described in detail below. In a first series of experiments the skinned fiber bundles were mounted in a force measuring apparatus and sarcomere length (SL) was adjusted to 2.2 μm using a laser diffraction pattern and width and thickness were determined for calculation of cross-sectional area. Force was measured over a range of pCa values Skinned fiber bundles were treated with 10 μmol/L ranolazine for 15 min prior to evaluation. In a second series of experiments under different experimental conditions, we determined steady-state Mg-ATPase activity, while simultaneously measuring isometric tension in skinned fiber bundles as a function of pCa. In all experiments, skinned fibers were treated with ranolazine or DMSO vehicle for 15 min prior to beginning either tension or tension/ATPase rate measurements. Tension generated was computed from the force/cross-sectional area and data were analyzed in the GraphPad Prism software and fit with a sigmoidal modified Hill equation in order to generate tension-pCa curves, Hill coefficients, and pCa50 (pCa value at half-maximum tension). We also determined cross-bridge kinetics employing a quick release/restretch protocol. The rate constant for force redevelopment, Ktr, provides a measure of the rate of cross-bridge entry into the force generating state. In all experiments, only fiber bundles retaining more than 80% of their initial maximum tension were included in the analysis. We treated the fibers with ranolazine from a DMSO stock solution or DMSO alone added to relaxing solution for 15 min prior to the experimental run. Methods for gel electrophoresis analysis of myofilament protein phosphorylation and oxidative modifications are provided below.
Studies with detergent extracted (skinned) fiber bundles: Mice were anesthetized with pentobarbital (50 mg/kg IP), and the hearts were rapidly excised and rinsed in a pH 7.0 ice-cold relaxing solution (HR) composed of (in mM) 10 EGTA, 41.89K-Prop, 6.57 MgCl2, 100 BES, 6.22 ATP, 5 Na azide, and 10 creatine phosphate. The solution also contained 1 μg/ml leupeptin, 2.5 μg/ml pepstatin A, and 50 μM phenylmethylsulfonyl fluoride. Left ventricular papillary muscles were dissected and fiber bundles were prepared as previously described (Wolska et al., J. Physiol. 536: 863-870 (2001)). The fiber bundles were extracted overnight in relaxing solution plus 1% Triton X-100 at 4° C.
In a second series of experiments force and ATPase rate were measured simultaneously using methods and an experimental apparatus previously described (de Tombe et al., Circ Res 76: 734-741 (1995); Wolska et al., Circ Res 84: 745-751 (1999)). The fiber bundles were mounted between a force transducer and displacement motor using aluminum T-clips, and the sarcomere length was set to 2.2 μm using He—Ne laser diffraction (Vahebi et al., Circ Res 96: 740-747 (2005)). The width and diameter were each measured at three points along the fiber bundle. Force per cross-sectional area was used to determine tension. The fiber was contracted initially at a saturating calcium concentration (pCa 4.5) and sarcomere length was again adjusted to 2.2 μm. Sarcomere length remained constant throughout the rest of the experiment.
ATPase activity was measured at 20° C. as previously described and calibrated with rapid injections of ADP (0.5 nmol) with a motor-controlled syringe (de Tombe et al., 1990, supra; Wolska et al., 1999, supra). The fiber was placed in relaxing solution for 2 min, then in the preactivation solution for 2-3 min each time before being placed in the activating solution for 1-2 min (until stabilization of force) and then quickly returned to the relaxing solution. Various contraction-relaxation cycles were carried out using different ratios of total calcium concentration to total EGTA concentration. The final contraction was again at a saturating calcium concentration. […]

Maximum Tension ([2]; DOCA-salt fiber bundles): 27.19 ± 0.54 mN/mm^2
Passive Tension ([2]; DOCA-salt fiber bundles): 0.68 ± 0.40 mN/mm^2
Tension Cost ΔATPase/ΔTension ([2]; DOCA-salt fiber bundles): 10.8 ± 0.8
Maximum ATPase ([2]; DOCA-salt fiber bundles): 326.9 ± 8.7 pmol/s/mg
Ktr, the rate constant for force redevelopment ([2]; DOCA-salt fiber bundles): 11.0 ± 1.0
Maximum Tension ([2]; sham fiber bundles): 36.80 ± 0.16 mN/mm^2
Passive Tension ([2]; sham fiber bundles): 0.55 ± 0.33 mN/mm^2
Tension Cost ΔATPase/ΔTension ([2]; sham fiber bundles): 7.1 ± 0.4
Maximum ATPase ([2]; sham fiber bundles): 302.0 ± 9.0 pmol/s/mg
Ktr, the rate constant for force redevelopment ([2]; sham fiber bundles): 11.2 ± 0.5
SMILES: COc1ccccc1OCC(O)CN1CCN(CC(=O)Nc2c(C)cccc2C)CC1 (centres unmarked) [ranolazine]
Ca2+ transients [1]: did not affect either group
